Data published in patent US20200308184A1, “TETRAPYRROLIC CONJUGATES AND USES THEREOF FOR IMAGING” (Health Research, Inc., priority 2017, published 2020).
Read-outs that look alike come from different tables or passages of the source.

Key:
[1] = published value, 37 C; cited from earlier work
[2] = tested on: Ward rat tumor; conditions: HPPH alone, previous findings; cited from earlier work
[3] = T1 and T2 relaxivities of compounds 4, 9 & 14 on 4.7 Tesla preclinical MRI; assay type: physicochemical; conditions: T1 relaxivity, 37C, in PBS
Experimental: Characterization of MR imaging efficacy for compounds 4, 9 & 14. MR imaging was performed on a 4.7 Tesla preclinical MRI using the ParaVision 3.0.2 acquisition platform (Bruker Biospin, Billerica Mass.). In vitro relaxivities were acquired using the Bruker G060 gradient insert and a quadrature radiofrequency coil (35 mm ID, m2m Imaging, Cleveland Ohio). In vivo imaging in rat models utilized larger Accustar® shield gradients (150 mm ID) and a quadrature radiofrequency coil (72 mm ID, Bruker Biospin).
T1 and T2 relaxivities for compounds 4, 9 & 14 were acquired at 37C. Samples were diluted in PBS with concentrations ranging from 50 to 200 μM and transferred to NMR tubes for imaging. A tube containing 1× PBS was included as a “0 μM control”. T1 relaxation rates of serial dilutions were measured using an inversion-recovery TrueFISP acquisition with the following parameters: TE/TR=1.5/3.0 ms, flip angle=30°, inv. Repetition time=10 s, segments=8, frames=100. T2 relaxation rates were measured using a multi-echo, Carr-Purcell-Meiboom-Gill (CPMG) spin-echo sequence with a fixed TR of 3000 ms and TE times ranging from 20-1200 ms in 20 ms increments (60 echoes). The relaxation rate of each sample calculated using non-linear regression analysis routines developed in MATLAB (MathWorks, Natick, Mass.) and relaxivities were then calculated by linear regression (concentration vs. relaxation rate).

SMILES | rl at 4.7T [1] | rl at 4.7T [3] | further results
O=C([O-])CN1CCN(CC(=O)[O-])CCN(CC(=O)O)CCN(CC(=O)[O-])CC1.[Gd+3] [Gd-DOTA] | 2.8 mM/s | – | –
O=C([O-])CN(CCN(CC(=O)[O-])CC(=O)O)CCN(CC(=O)[O-])CC(=O)O.[Gd+3] [Gd-DTPA, Gadolinium-diethyline-triamine pentacetic-acid] | 3.2 mM/s | – | –
CCCCCCOC(C)c1c(C)c2cc3nc(c4c5[nH]c(cc6nc(cc1[nH]2)C(C)=C6CC)c(C)c5C(=O)C4)[C@@H](CCC(=O)O)[C@@H]3C (some centres unmarked) [HPPH, 3-(1-hexyloxyethyl) pyropheophorbide-a] | – | – | time of peak concentrations [2]: 24 h
CCCCCCOC(C)c1c(C)c2cc3nc(c4c5[nH]c(cc6nc(cc1[nH]2)C(C)=C6CC)c(C)c5C(=O)C4)[C@@H](CCC(=O)NCCNC(=O)CN1CCN(CC(=O)[O-])CCN(CC(=O)[O-])CCN(CC(=O)[O-])CC1)C3C.[Gd+3] (some centres unmarked) [compound 4] | – | 4.44 mM/s | –
CCCCCCOC(C)c1c(C)c2cc3nc(c4c5[nH]c(cc6nc(cc1[nH]2)C(C)=C6CC)c(C)c5C(=O)C4)[C@@H](CCC(=O)N(CC(=O)NCCNC(=O)CN1CCN(CC(=O)[O-])CCN(CC(=O)[O-])CCN(CC(=O)[O-])CC1)CC(=O)NCCNC(=O)CN1CCN(CC(=O)[O-])CCN(CC(=O)[O-])CCN(CC(=O)[O-])CC1)C3C.[Gd+3].[Gd+3] (some centres unmarked) [compound 9] | – | 10.65 mM/s | –
